Source: patent publication US10786488B2, “Substituted quinolizine derivatives useful as HIV integrase inhibitors” (MERCK SHARP & DOHME CORP., priority 2017, dated 2020)

Tests used:
[1] = Stability of compounds in whole blood (dog); assay type: in vitro ADME; conditions: 1 μM compound, 37° C.
Procedure: (§1) Selected compounds of the present invention (1 μM) were incubated with whole blood (with heparin) from rat, dog and human. The samples were incubated for 0, 0.5, 1 and 2 hours in a 95% humidified incubator at 37° C. with 5% CO2. At each time point, the samples were quenched with acetonitrile containing an appropriate internal standard. The samples were then vortex-mixed and centrifuged at 2,500×g for 20 minutes. The supernatants were transferred to clean plates and analyzed using LC-MS/MS. The stability of the analyte was assessed by determining the percentage of drug loss over the course of time.

[2] = Stability of compounds in whole blood (rat); assay type: in vitro ADME; conditions: 1 μM compound, 37° C.
Procedure: as §1

[3] = Stability of compounds in whole blood (human); assay type: in vitro ADME; conditions: 1 μM compound, 37° C.
Procedure: as §1

[4] = Dog pharmacokinetic studies, oral administration to fasted Beagle dogs; assay type: in vivo; conditions: dose equivalent to 10 mg/kg of Compound Int-1
Procedure: Male Beagle Dogs (Marshall Farms) were used for the pharmacokinetic studies. Studies were conducted under a protocol approved by the WP-IACUC (Animal Procedure Statement #2018-600787-MAR). Following overnight-fasting, dogs were dosed orally with either Compound Int-1 at 10 mg/kg or one of the respective prodrugs at the dose equivalent to 10 mg/kg of Compound Int-1 formulated as a suspension in Orablend® SF. Dosing was followed by 15 mL water rinse via oral gavage. Food was returned at 4 hours after dosing. Blood (0.5-mL) was drawn at pre-dose, 0.25, 0.5, 1, 2, 4, 6, 24, 30, 48, 54 and 72 hours post-dosing into EDTA-coated collection tubes containing 25 μL of 2 mM dichlorvos solution in water. The tubes were kept chilled prior to blood collection and throughout plasma separation. The plasma was separated by centrifugation (2 minutes at 10000 g). After processing, 10 uL of 10% formic acid was added to each 200 uL of plasma. Acidified plasma samples were immediately frozen and kept at −70° C. until analysis by LC-MS/MS.
Mean [±SD] Pharmacokinetic Parameters for Compounds after Oral Administration to Fasted Beagle Dogs at Dose Equivalent to 10 mg/kg of Compound Int-1.

| Remaining at 2 hours [1] [%] | Remaining at 2 hours [2] [%] | Remaining at 2 hours [3] [%] | absorption versus metabolite Compound Int-1 [4] | Compound |
| --- | --- | --- | --- | --- |
| 19 | 0 | 24 |  | CCOC(=O)Oc1c2n(cc(C(=O)NCc3ccc(F)cc3F)c1=O)C[C@@H]1OCCC[C@]1(C)C2=O [Compound 1] |
|  |  |  | significant increase in absorption | CC(C)OC(=O)OCOc1c2n(cc(C(=O)NCc3ccc(F)cc3F)c1=O)C[C@@H]1OCCC[C@]1(C)C2=O [Compound 3] |
|  |  |  | significant increase in absorption | CCOC(=O)OCOc1c2n(cc(C(=O)NCc3ccc(F)cc3F)c1=O)C[C@@H]1OCCC[C@]1(C)C2=O [Compound 4] |
